Laboratory results: PubChem BioAssay AID1963843 (Molecular Pharmacology Branch, DTP, NCI, 2024)

Test system: 616215-338-R-J1-PDC complex spheroid viability
Assay: Anticancer human tumor 616215-338-R-J1-PDC patient-derived colon adenocarcinoma cell line growth inhibition [POLQ]
Conditions: for IC50: curve of first compound; for viability, T/C: stronger effect = lower value
Outline: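 PDC + HUVEC + MSC complex spheroids; POLQ inhibitors ± partner drugs; top conc. at/near clinical Cmax, else 10 microM (SN-38 1 microM), half-log dilutions; 37 degrees C, 5% CO2.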
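Also: spheroids exposed to compounds for one week before readout.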
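For viability, T/C in this document: percent viability relative to DMSO vehicle wells taken as 100%.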

C=CC(=O)N1CCN(c2nc(=O)n(-c3c(C)ccnc3C(C)C)c3nc(-c4c(O)cccc4F)c(F)cc23)C(C)C1 (configuration not stated) + COC1C(OC(N)=O)C(O)C(Oc2ccc3c(O)c(NC(=O)c4ccc(O)c(CC=C(C)C)c4)c(=O)oc3c2C)OC1(C)C
IC50 (second compound 0.0316 µM): > 10 µM
IC50 (second compound 0.1 µM): > 10 µM
IC50 (second compound 0.316 µM): > 10 µM
IC50 (second compound 1 µM): > 10 µM
IC50 (second compound 3.16 µM): > 10 µM
IC50 (second compound 10 µM): > 10 µM
viability, T/C (second compound 0.0316 µM, first compound 0.0316 µM): 105%
viability, T/C (second compound 0.0316 µM, first compound 0.1 µM): 99.7%
viability, T/C (second compound 0.0316 µM, first compound 0.316 µM): 98.4%
viability, T/C (second compound 0.0316 µM, first compound 1 µM): 108%
viability, T/C (second compound 0.0316 µM, first compound 3.16 µM): 113%
viability, T/C (second compound 0.0316 µM, first compound 10 µM): 106%
viability, T/C (second compound 0.1 µM, first compound 0.0316 µM): 98.4%
viability, T/C (second compound 0.1 µM, first compound 0.1 µM): 98.1%
viability, T/C (second compound 0.1 µM, first compound 0.316 µM): 98%
viability, T/C (second compound 0.1 µM, first compound 1 µM): 93.3%
viability, T/C (second compound 0.1 µM, first compound 3.16 µM): 104%
viability, T/C (second compound 0.1 µM, first compound 10 µM): 87.8%
viability, T/C (second compound 0.316 µM, first compound 0.0316 µM): 104%
viability, T/C (second compound 0.316 µM, first compound 0.1 µM): 99.7%
viability, T/C (second compound 0.316 µM, first compound 0.316 µM): 99.6%
viability, T/C (second compound 0.316 µM, first compound 1 µM): 95%
viability, T/C (second compound 0.316 µM, first compound 3.16 µM): 107%
viability, T/C (second compound 0.316 µM, first compound 10 µM): 95.8%
viability, T/C (second compound 1 µM, first compound 0.0316 µM): 96.9%
viability, T/C (second compound 1 µM, first compound 0.1 µM): 95.8%
viability, T/C (second compound 1 µM, first compound 0.316 µM): 94%
viability, T/C (second compound 1 µM, first compound 1 µM): 101%
viability, T/C (second compound 1 µM, first compound 3.16 µM): 105%
viability, T/C (second compound 1 µM, first compound 10 µM): 90.6%
viability, T/C (second compound 3.16 µM, first compound 0.0316 µM): 94.8%
viability, T/C (second compound 3.16 µM, first compound 0.1 µM): 103%
viability, T/C (second compound 3.16 µM, first compound 0.316 µM): 94.3%
viability, T/C (second compound 3.16 µM, first compound 1 µM): 95%
viability, T/C (second compound 3.16 µM, first compound 3.16 µM): 104%
viability, T/C (second compound 3.16 µM, first compound 10 µM): 70.4%
viability, T/C (second compound 10 µM, first compound 0.0316 µM): 99.7%
viability, T/C (second compound 10 µM, first compound 0.1 µM): 94.3%
viability, T/C (second compound 10 µM, first compound 0.316 µM): 98%
viability, T/C (second compound 10 µM, first compound 1 µM): 102%
viability, T/C (second compound 10 µM, first compound 3.16 µM): 102%
viability, T/C (second compound 10 µM, first compound 10 µM): 83.6%
